Measurements from patent US5310745A, “Antiviral compounds” (priority 1992, dated 1994).

Columns and labels:
Type in all cases: cell-based
[1] = tested on: Sheep choroid plexus (SCP) cells; test: Toxicity of compounds in control wells without virus, graded morphologically
Description: (§1) Sheep choroid plexus (SCP) cells were obtained from American Type Culture Collection (ATCC) catalogue number CRL 1700 and were routinely passaged in vitro in Dulbecco's Modified Eagles (DME) medium supplemented with 20% fetal bovine serum (FBS). SCP cells were passaged once per week at a 1:2 or 1:3 split ratio. Visna was titrated by plaque assay in six-well plates. Virus pools were stored at -70° C.
(§2) SCP cells were cultured in 6-well plates to confluence. Wells were washed two times with serum free Minimal Essential Medium (MEM) to remove FBS. 0.2 ml of virus was added per well in MEM supplemented with 4 mM glutamine and gentamycin. After 1 hour adsorption, the virus was aspirated from each well. The appropriate concentration of each compound in 5 ml of Medium 199 (M-199) supplemented With 2% lamb serum, 4 mM glutamine, 0.5% agarose and gentamycin was added to each well. Cultures were incubated at 37° C. in a humidified 5% CO2 incubator for 3-4 weeks. To terminate the test: cultures were fixed in 10% formalin, the agar removed, the monolayers stained with 1% crystal violet and plaques counted. Each compound concentration was run in triplicate. […] 0 is no toxicity observed while 4 is total lysing of the cell monolayer.

[2] = tested on: Sheep choroid plexus (SCP) cells; test: as above; design: key: 0: no toxicity observed; 4: total lysing of the cell monolayer; settings: graded 0 to 4, Table 2
Description: as §1, §2

visna virus = test: Plaque reduction assay, inhibition of visna virus in vitro; design: key to Antiviral Activity: A: active compound; I: inactive compound; settings: for inhibition at 10 µM / inhibition at 100 µM / inhibition at 1000 µM / inhibition at 1 µM: Visna-maedi virus; for inhibition at 10 µM / inhibition at 100 µM / inhibition at 1000 µM / % Plaque Reduction / inhibition at 1 µM: Table 2; for Antiviral Activity: Table 1; for inhibition at 1 µM: 0.001 mM
Source text: Visna virus, a lentivirus genetically very similar to the AIDS virus, is pathogenic for sheep and goats. See Sonigo et al., Cell 42, 369-382 (1985); Haase, Nature 322, 130-136 (1986). Inhibition of visna virus replication in vitro as a useful model for human immunodeficiency virus (HIV) and its inhibition by test compounds has been described by Franket al., Antimicrobial Agents and Chemotherapy 31 (9), 1369-1374 (1987). The N-butyl derivative of 1,5-dideoxy-1,5-imino-D-glucitol, also referred to as n-butyl-deoxynojirimycin (N-Bu-DNJ), was used as a control standard for comparison with various novel compounds of this invention.
Various compounds as prepared above were tested for inhibition of visna virus in vitro in a plaque reduction assay as follows:
as §1, §2

[3] = 0.03125 mM, 0 to 4 scale, Table 1
[4] = 0.01 mM, graded 0 to 4, Table 2

Row | Compound | Toxicity ([1]; 0.1 mM, graded 0 to 4, Table 2) | Toxicity ([1]; 1.0 mM, graded 0 to 4, Table 2) | Toxicity ([2]; 0.01 mM) | inhibition at 10 µM (visna virus; 0.01 mM) [%] | inhibition at 100 µM (visna virus; 0.1 mM) [%] | inhibition at 1000 µM (visna virus; 1.0 mM) [%] | Toxicity ([2]; 0.1 mM) | Toxicity ([2]; 1.0 mM) | % Plaque Reduction (visna virus; 1.0 mM) | Toxicity ([2]; 0.001 mM) | inhibition at 1 µM (visna virus) [%] | also measured
1 | CC(C)C(=O)OC[C@@H]1[C@@H](OC(=O)C(C)C)[C@H](OC(=O)C(C)C)[C@@H](OC(=O)C(C)C)CN1C(=O)Cc1ccccc1 [Example 39, 1,5-(Phenylacetylimino)-1,5-dideoxy-D-glucitol, tetraisobutyrate] | 1 | 3 | 0 | 19 | 56 | 95 |  |  |  |  |  | 
2 | CCCCN1C[C@H](OC(=O)CCC2CCCC2)[C@@H](OC(=O)CCC2CCCC2)[C@H](OC(=O)CCC2CCCC2)[C@H]1COC(=O)CCC1CCCC1 [Example 56, 1,5-(Butylimino)-1,5-dideoxy-D-glucitol, tetra(3-cyclopentylpropanoate)] |  |  | 0 | 13 | 16 | 56 | 0 | 0 |  |  |  | 
3 | CCCC(C)CN1C[C@H](OC(C)=O)[C@@H](OC(C)=O)[C@H](OC(C)=O)[C@H]1COC(C)=O (stereo partly drawn) [Example 33, 1,5-[(2-Methylpentyl)imino]-1,5-dideoxy-D-glucitol, tetraacetate] |  | 3 | 0 |  |  |  | 0 |  | 63% |  |  | % Plaque Reduction (visna virus; 0.01 mM): 21%; % Plaque Reduction (visna virus; 0.1 mM): 28%
4 | CCCCCCN1C[C@H](OC(C)=O)[C@@H](OC(C)=O)[C@H](OC(C)=O)[C@H]1COC(C)=O [Example 12, 1,5-(Hexylimino)-1,5-dideoxy-D-glucitol, tetraacetate] |  |  |  |  |  |  |  |  |  |  |  | Toxicity ([1]; 0.0075 mM, 0 to 4 scale, Table 1): 1; Toxicity ([1]; 0.0156 mM, 0 to 4 scale, Table 1): 1; Toxicity [1, 3]: 2; Antiviral Activity (visna virus; 0.0075 mM): A; Antiviral Activity (visna virus; 0.0156 mM): A; Antiviral Activity (visna virus; 0.03125 mM): A
5 | CC(=O)OC[C@@H]1[C@@H](OC(C)=O)[C@H](OC(C)=O)[C@@H](OC(C)=O)CN1C(=O)c1ccc(-c2ccccc2)cc1 [Example 53, 1,5-[([1,1'-biphenyl]-4-ylcarbonyl)imino]-1,5-dideoxy-D-glucitol, tetraacetate] | 2 |  | 0 | 81 | 100 |  |  | 4 | Toxic | 0 | 28 | 
6 | CC(=O)OC[C@@H]1[C@@H](OC(C)=O)[C@H](OC(C)=O)[C@@H](OC(C)=O)CN1C(=O)C=Cc1ccccc1 [Example 36, 1,5-(Cinnamoylimino)-1,5-dideoxy-D-glucitol, tetraacetate] |  |  | 0 | 76 |  |  | 4 | 4 | Toxic | 0 | 42 | % Plaque Reduction (visna virus; 0.1 mM): Toxic
7 | CC(=O)OC[C@@H]1[C@@H](OC(C)=O)[C@H](OC(C)=O)[C@@H](OC(C)=O)CN1C(=O)c1cccnc1 [Example 35, 1,5-[(3-Nicotinoyl)imino]-1,5-dideoxy-D-glucitol, tetraacetate] | 1 | 3 | 0 | 10 | 90 | 94 |  |  |  |  |  | 
8 | CC(=O)OC[C@@H]1[C@@H](OC(C)=O)[C@H](OC(C)=O)[C@@H](OC(C)=O)CN1C(=O)CCOc1ccc(Cl)cc1 [Example 51, 1,5-Dideoxy-1,5-[[3-(4-chlorophenoxy)-1-oxopropyl]-imino]-D-glucitol, tetraacetate] | 1 |  | 0 | 57 | 91 |  |  | 4 | Toxic | 0 | 12 | 
9 | CC(=O)OC[C@@H]1[C@@H](OC(C)=O)[C@H](OC(C)=O)[C@@H](OC(C)=O)CN1C [Example 10, 1,5-(Methylimino)-1,5-dideoxy-D-glucitol, tetraacetate] |  |  |  |  |  |  |  |  |  |  |  | Toxicity [1, 3]: 1; Toxicity ([1]; 0.0625 mM, 0 to 4 scale, Table 1): 2; Toxicity ([1]; 0.125 mM, 0 to 4 scale, Table 1): 3; Antiviral Activity (visna virus; 0.03125 mM): A; Antiviral Activity (visna virus; 0.0625 mM): A; Antiviral Activity (visna virus; 0.125 mM): A
10 | CC(=O)OC[C@@H]1[C@@H](OC(C)=O)[C@H](OC(C)=O)[C@@H](OC(C)=O)CN1C(=O)COc1ccccc1 [Example 25, 1,5-[(Phenoxymethyl)carbonylimino]-1,5-dideoxy-D-glucitol, tetraacetate] |  |  |  |  |  |  |  |  |  |  |  | Toxicity ([1]; 0.1 mM, 0 to 4 scale, Table 1): 1; Toxicity ([1]; 1.0 mM, 0 to 4 scale, Table 1): 2; Antiviral Activity (visna virus; 0.1 mM): A; Antiviral Activity (visna virus; 1.0 mM): A
11 | CCC(CC)CN1C[C@H](OC(C)=O)[C@@H](OC(C)=O)[C@H](OC(C)=O)[C@H]1COC(C)=O [Example 27, 1,5-[(2-Ethylbutyl)imino]-1,5-dideoxy-D-glucitol, tetraacetate] |  | 3 |  |  | 12 | 65 | 0 |  |  |  |  | 
12 | CCCC(=O)OC[C@@H]1[C@@H](O)[C@H](OC(=O)CCC)[C@@H](OC(=O)CCC)CN1CCCCCC(F)(F)F [Example 66, 1,5-(6,6,6-Trifluorohexylimino)-1,5-dideoxy-D-glucitol, 2,3,6-tributyrate] | 1 | 2 | 0 | 38 | 88 | 100 |  |  |  | 0 | -3 | 
13 | CCCC(=O)OC[C@H]1NC[C@H](OC(=O)CCC)[C@@H](OC(=O)CCC)[C@@H]1OC(=O)CCC [Example 42, 1,5-Dideoxy-1,5-imino-D-glucitol, tetrabutyrate] | 2 |  |  | 13 | 97 |  |  | 4 |  | 0 | 31 | Toxicity [1, 4]: 1
14 | CCCCN1C[C@H](OC(=O)C(C)(C)C)[C@@H](OC(=O)C(C)(C)C)[C@H](OC(=O)C(C)(C)C)[C@H]1COC(=O)C(C)(C)C [Example 50A] | 1 |  | 0 | 20 | 49 |  |  | 4 | Toxic |  |  | 
15 | CC(=O)OC[C@@H]1[C@@H](OC(C)=O)[C@H](OC(C)=O)[C@@H](OC(C)=O)CN1C(=O)Cc1ccc(Cl)cc1 [Example 40, 1,5-[(4-Chlorophenyl)acetylimino]-1,5-dideoxy-D-glucitol, tetraacetate] | 3 |  |  | 46 |  |  |  | 4 |  | 0 | 29 | Toxicity [1, 4]: 1
16 | CCCC(=O)OC[C@@H]1[C@@H](OC(=O)CCC)[C@H](OC(=O)CCC)[C@@H](OC(=O)CCC)CN1CCCCCCCC(F)(F)F [Example 62, 1,5-(8,8,8-Trifluorooctylimino)-1,5-dideoxy-D-glucitol, tetrabutyrate] | 1 | 2 |  | 49 | 91 | 97 |  |  |  |  |  | Toxicity [1, 4]: 1
17 | CCCC(=O)OC[C@@H]1[C@@H](OC(=O)CCC)[C@H](OC(=O)CCC)[C@@H](OC(=O)CCC)CN1C(=O)c1ccccc1OC(C)=O [Example 52, 1,5-[[2-(Acetyloxy)benzoyl]imino]-1,5-dideoxy-D-glucitol, tetrabutanoate] |  |  | 0 | 37 | 98 |  | 0 | 4 | Toxic | 0 | 16 | 
18 | CCCC(=O)OC[C@@H]1[C@@H](OC(=O)CCC)[C@H](OC(=O)CCC)[C@@H](OC(=O)CCC)CN1C(=O)Cc1cccs1 [Example 55, 1,5-Dideoxy-1,5-[[1-oxo-2-(2-thienyl)ethyl]imino]-D-glucitol, tetrabutanoate] |  |  | 0 | 37 | 95 |  | 0 | 4 | Toxic | 0 | 11 | 
19 | CCCCN1C[C@H](OC(=O)CCC(C)C)[C@@H](OC(=O)CCC(C)C)[C@H](OC(=O)CCC(C)C)[C@H]1COC(=O)CCC(C)C [Example 49, 1,5-(Butylimino)-1,5-dideoxy-D-glucitol, tetra(4-methylpentanoate)] |  |  |  |  |  | 98 |  | 0 |  |  |  | 
